# Data published in ChEMBL document CHEMBL5316287 (J Med Chem, 2023).
# Experiments:
# [1] = Toxicity in castrated NSG mouse xenografted with human VCaP cells assessed as mortality at 0.3 to 3 mg/kg,po qd for 33 days consecutively; assay type: organism-based; conditions: in vivo, 792 h, dose 0.3-3 mg/kg, time 33 day
# [2] = molecular target: Histone acetyltransferase p300 (Homo sapiens, UniProt Q09472); experiment: Inhibition of EP300 in human LK2 cells assessed as reduction in intracellular H3K27 acetylation incubated for 3 hrs by chemiluminescence based ELISA; assay type: cell-based
# [3] = 1-Octanol/PBS partition coefficient, logD of the compound at pH 7.4 incubated for 30 mins by shake flask technique based HPLC-LC/MS analysis; assay type: physicochemical
# [4] = Metabolic stability in mouse liver microsomes assessed as intrinsic clearance at 1 uM; assay type: ADME, Microsome
# [5] = Metabolic stability in human liver microsomes assessed as intrinsic clearance at 1 uM; assay type: ADME, Microsome
# [6] = AUC in BALB/cAnNCrlCrlj mouse at 10 mg/kg,po; assay type: ADME, organism-based; design: dose 10 mg/kg, route po; conditions: in vivo
# [7] = Unbound AUC in BALB/cAnNCrlCrlj mouse at 10 mg/kg,po; assay type: ADME, organism-based; conditions: in vivo
# [8] = Cmax in BALB/cAnNCrlCrlj mouse at 10 mg/kg,po; assay type: ADME, organism-based; design: dose 10 mg/kg, route po; conditions: in vivo
# [9] = Half life in BALB/cAnNCrlCrlj mouse at 10 mg/kg,po; assay type: ADME, organism-based; conditions: in vivo
# [10] = Oral bioavailability in BALB/cAnNCrlCrlj mouse at 10 mg/kg; assay type: ADME, organism-based; conditions: in vivo, po, 10 mg/kg
# [11] = Volume of distribution at steady state in BALB/cAnNCrlCrlj mouse at 1 mg/kg,iv administered as DMA/Tween80/saline (1:1:8 ratio) solution; assay type: ADME, organism-based; conditions: in vivo, read-out: Vdss
# [12] = Unbound clearance in BALB/cAnNCrlCrlj mouse at 1 mg/kg,iv administered as DMA/Tween80/saline (1:1:8 ratio) solution; assay type: ADME, organism-based; conditions: in vivo
# CREB-binding protein = CREB-binding protein (Homo sapiens, UniProt Q92793); experiment: Inhibition of CBP (unknown origin) biotinylated H4 (1 to 25)-GSGSK peptide as substrate incubated for 1 hr in presence of acetyl-coA by AlphaLISA assay
# [13] = molecular target: Histone acetyltransferase KAT5 (Homo sapiens, UniProt Q92993); experiment: Inhibition of TIP60 (unknown origin) biotinylated H4 (1 to 25)-GSGSK peptide as substrate incubated for 1 hr in presence of acetyl-coA by AlphaLISA assay
# [14] = molecular target: Histone acetyltransferase KAT7 (Homo sapiens, UniProt O95251); experiment: Inhibition of MYST2 (unknown origin) biotinylated H4 (1 to 25)-GSGSK peptide as substrate incubated for 1 hr in presence of acetyl-coA by AlphaLISA assay
# [15] = molecular target: Histone acetyltransferase KAT6B (Homo sapiens, UniProt Q8WYB5); experiment: Inhibition of MYST4 (unknown origin) biotinylated H4 (1 to 25)-GSGSK peptide as substrate incubated for 1 hr in presence of acetyl-coA by AlphaLISA assay
# [16] = molecular target: Histone acetyltransferase KAT2B (Homo sapiens, UniProt Q92831); experiment: Inhibition of PCAF (unknown origin) biotinylated H3 (1 to […])-GGK peptide as substrate incubated for 1 hr in presence of acetyl-coA by AlphaLISA assay
# [17] = molecular target: Histone acetyltransferase KAT2A (Homo sapiens, UniProt Q92830); experiment: Inhibition of GCN5 (unknown origin) biotinylated H3 (1 to […])-GGK peptide as substrate incubated for 1 hr in presence of acetyl-coA by AlphaLISA assay
# VCaP [18] = experiment: Antiproliferative activity against AR-positive human VCaP cells assessed as cell growth inhibition incubated for 7 days by CellTiter-Glo assay; assay type: functional; conditions: 168 h, time 7 day
# CWR22R = experiment: Antiproliferative activity against AR-positive human 22Rv1 cells assessed as cell growth inhibition incubated for 7 days by CellTiter-Glo assay; assay type: functional; conditions: 22Rv1, 168 h, time 7 day
# LNCaP [19] = experiment: Antiproliferative activity against AR-positive human LNCaP cells assessed as cell growth inhibition incubated for 7 days by CellTiter-Glo assay; assay type: functional; conditions: 168 h, time 7 day
# PC-3 = experiment: Antiproliferative activity against AR-negative human PC-3 cells assessed as cell growth inhibition incubated for 7 days by CellTiter-Glo assay; assay type: functional; conditions: PC-3, 168 h, time 7 day
# [20] = Toxicity in castrated NSG mouse xenografted with human VCaP cells assessed as body weight loss at 0.3 to 3 mg/kg,po qd for 33 days consecutively; assay type: organism-based; conditions: in vivo, 792 h, dose 0.3-3 mg/kg, time 33 day
# VCaP [21] = experiment: Inhibition of H3K18 acetylation in AR-positive human VCaP cells at 3.9 to 1000 nM incubated for 72 hrs by Western blot analysis; assay type: functional, cell-based; conditions: dose 3.9-1000 nM
# VCaP [22] = experiment: Inhibition of H3K27 acetylation in AR-positive human VCaP cells at 3.9 to 1000 nM incubated for 72 hrs by Western blot analysis; assay type: functional, cell-based; conditions: dose 3.9-1000 nM
# VCaP [23] = experiment: Downregulation of PSA expression in AR-positive human VCaP cells at 3.9 to 1000 nM incubated for 72 hrs by Western blot analysis; assay type: functional, cell-based; conditions: dose 3.9-1000 nM
# LNCaP [24] = experiment: Inhibition of H3K18 acetylation in AR-positive human LNCaP cells at 3.9 to 1000 nM incubated for 72 hrs by Western blot analysis; assay type: functional, cell-based; conditions: dose 3.9-1000 nM
# LNCaP [25] = experiment: Inhibition of H3K27 acetylation in AR-positive human LNCaP cells at 3.9 to 1000 nM incubated for 72 hrs by Western blot analysis; assay type: functional, cell-based; conditions: dose 3.9-1000 nM
# LNCaP [26] = experiment: Downregulation of PSA expression in AR-positive human LNCaP cells at 3.9 to 1000 nM incubated for 72 hrs by Western blot analysis; assay type: functional, cell-based; conditions: dose 3.9-1000 nM
# VCaP [27] = experiment: Antitumor activity against human VCaP cells xenografted in castrated NSG mouse assessed as tumor growth inhibition at 0.3 mg/kg,po qd for 33 days consecutively; assay type: functional; conditions: 792 h, time 33 day, read-out: TGI
# VCaP [28] = experiment: Antitumor activity against human VCaP cells xenografted in castrated NSG mouse assessed as tumor growth inhibition at 1 mg/kg,po qd for 33 days consecutively; assay type: functional; conditions: 792 h, time 33 day, read-out: TGI
# VCaP [29] = experiment: Antitumor activity against human VCaP cells xenografted in castrated NSG mouse assessed as tumor growth inhibition at 3 mg/kg,po qd for 33 days consecutively; assay type: functional; conditions: 792 h, time 33 day, read-out: TGI
# VCaP [30] = experiment: Antitumor activity against human VCaP cells xenografted in castrated NSG mouse assessed as decrease in plasma PSA expression at 0.3 to 3 mg/kg,po qd for 33 days consecutively and measured after 6 hrs by ELISA; assay type: functional, organism-based; conditions: dose 0.3-3 mg/kg, time 33.0 day
# Histone acetyltransferase KAT6B, sequence (Q8WYB5 whole entry): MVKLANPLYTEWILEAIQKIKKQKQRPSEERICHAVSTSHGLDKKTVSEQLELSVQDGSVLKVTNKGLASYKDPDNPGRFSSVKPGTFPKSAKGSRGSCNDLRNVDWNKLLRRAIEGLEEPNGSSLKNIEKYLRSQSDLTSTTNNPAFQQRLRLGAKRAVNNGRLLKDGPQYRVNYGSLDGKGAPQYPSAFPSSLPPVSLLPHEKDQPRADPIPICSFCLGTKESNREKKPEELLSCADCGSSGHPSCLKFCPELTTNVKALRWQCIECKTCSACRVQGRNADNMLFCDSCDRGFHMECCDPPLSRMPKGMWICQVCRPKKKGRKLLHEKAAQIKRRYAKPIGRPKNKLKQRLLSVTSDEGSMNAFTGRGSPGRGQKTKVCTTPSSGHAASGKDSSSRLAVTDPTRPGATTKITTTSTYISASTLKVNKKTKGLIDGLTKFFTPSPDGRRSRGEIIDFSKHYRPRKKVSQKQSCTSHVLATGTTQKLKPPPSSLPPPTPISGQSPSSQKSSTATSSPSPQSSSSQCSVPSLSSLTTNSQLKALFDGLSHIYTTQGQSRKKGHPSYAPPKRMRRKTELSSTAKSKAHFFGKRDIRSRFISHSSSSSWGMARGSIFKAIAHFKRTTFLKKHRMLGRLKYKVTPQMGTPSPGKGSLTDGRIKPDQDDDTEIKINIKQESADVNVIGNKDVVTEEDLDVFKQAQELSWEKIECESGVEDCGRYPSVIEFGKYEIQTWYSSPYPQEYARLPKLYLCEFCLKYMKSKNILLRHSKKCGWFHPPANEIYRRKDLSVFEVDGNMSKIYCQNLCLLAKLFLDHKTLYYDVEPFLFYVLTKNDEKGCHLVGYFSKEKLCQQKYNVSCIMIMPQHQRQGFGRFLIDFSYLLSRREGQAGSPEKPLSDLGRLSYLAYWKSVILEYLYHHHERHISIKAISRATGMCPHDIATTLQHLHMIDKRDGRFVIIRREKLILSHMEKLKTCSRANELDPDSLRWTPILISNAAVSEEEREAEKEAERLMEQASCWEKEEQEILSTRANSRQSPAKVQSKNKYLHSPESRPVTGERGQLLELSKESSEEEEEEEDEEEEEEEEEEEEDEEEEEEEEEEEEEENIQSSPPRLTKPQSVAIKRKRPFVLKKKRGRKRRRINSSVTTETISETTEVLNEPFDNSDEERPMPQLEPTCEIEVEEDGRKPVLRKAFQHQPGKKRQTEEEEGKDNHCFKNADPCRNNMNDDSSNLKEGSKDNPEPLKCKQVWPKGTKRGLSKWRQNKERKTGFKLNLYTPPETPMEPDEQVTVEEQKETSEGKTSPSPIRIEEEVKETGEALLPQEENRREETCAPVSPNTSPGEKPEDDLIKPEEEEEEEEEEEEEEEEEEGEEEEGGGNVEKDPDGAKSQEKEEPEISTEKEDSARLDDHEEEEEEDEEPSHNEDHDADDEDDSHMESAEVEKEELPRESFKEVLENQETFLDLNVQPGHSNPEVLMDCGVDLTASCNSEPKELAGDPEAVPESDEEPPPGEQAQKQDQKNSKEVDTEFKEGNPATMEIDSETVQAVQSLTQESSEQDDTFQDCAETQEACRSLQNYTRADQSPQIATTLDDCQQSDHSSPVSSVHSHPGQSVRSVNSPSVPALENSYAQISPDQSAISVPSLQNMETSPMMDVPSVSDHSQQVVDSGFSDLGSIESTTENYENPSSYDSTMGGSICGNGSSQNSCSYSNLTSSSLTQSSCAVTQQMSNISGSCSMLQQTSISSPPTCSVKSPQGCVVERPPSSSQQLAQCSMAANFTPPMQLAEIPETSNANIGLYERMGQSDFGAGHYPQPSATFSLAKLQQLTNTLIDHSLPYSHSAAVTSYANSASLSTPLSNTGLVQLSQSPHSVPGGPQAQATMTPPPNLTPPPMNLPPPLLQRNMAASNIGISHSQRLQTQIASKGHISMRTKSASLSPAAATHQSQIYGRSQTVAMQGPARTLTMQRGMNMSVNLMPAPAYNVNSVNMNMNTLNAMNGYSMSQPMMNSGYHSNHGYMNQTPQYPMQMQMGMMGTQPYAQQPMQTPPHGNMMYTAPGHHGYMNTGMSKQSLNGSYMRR
# Histone acetyltransferase KAT2B, sequence (Q92831 whole entry): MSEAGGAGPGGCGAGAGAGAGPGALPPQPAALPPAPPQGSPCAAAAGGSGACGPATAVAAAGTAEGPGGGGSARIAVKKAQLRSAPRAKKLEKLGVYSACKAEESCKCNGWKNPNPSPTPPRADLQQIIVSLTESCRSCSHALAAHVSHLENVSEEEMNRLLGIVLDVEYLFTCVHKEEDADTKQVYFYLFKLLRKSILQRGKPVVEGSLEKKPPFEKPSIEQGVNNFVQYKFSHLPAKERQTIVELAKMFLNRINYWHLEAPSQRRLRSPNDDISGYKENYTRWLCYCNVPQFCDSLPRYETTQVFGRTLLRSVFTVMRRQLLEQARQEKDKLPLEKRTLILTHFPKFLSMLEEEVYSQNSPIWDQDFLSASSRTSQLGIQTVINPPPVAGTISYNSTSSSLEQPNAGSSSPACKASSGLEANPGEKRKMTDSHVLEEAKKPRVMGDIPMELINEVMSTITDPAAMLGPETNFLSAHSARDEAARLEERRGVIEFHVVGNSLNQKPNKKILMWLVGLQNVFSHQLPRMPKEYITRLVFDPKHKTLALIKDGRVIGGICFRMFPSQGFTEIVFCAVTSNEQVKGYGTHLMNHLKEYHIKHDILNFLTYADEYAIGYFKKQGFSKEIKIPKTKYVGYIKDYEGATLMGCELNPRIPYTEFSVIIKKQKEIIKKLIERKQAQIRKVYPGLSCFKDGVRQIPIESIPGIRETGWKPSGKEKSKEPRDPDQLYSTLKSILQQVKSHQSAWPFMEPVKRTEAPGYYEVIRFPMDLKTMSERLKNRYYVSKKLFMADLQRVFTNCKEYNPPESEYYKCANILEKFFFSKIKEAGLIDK
# Histone acetyltransferase KAT5, sequence (Q92993 whole entry): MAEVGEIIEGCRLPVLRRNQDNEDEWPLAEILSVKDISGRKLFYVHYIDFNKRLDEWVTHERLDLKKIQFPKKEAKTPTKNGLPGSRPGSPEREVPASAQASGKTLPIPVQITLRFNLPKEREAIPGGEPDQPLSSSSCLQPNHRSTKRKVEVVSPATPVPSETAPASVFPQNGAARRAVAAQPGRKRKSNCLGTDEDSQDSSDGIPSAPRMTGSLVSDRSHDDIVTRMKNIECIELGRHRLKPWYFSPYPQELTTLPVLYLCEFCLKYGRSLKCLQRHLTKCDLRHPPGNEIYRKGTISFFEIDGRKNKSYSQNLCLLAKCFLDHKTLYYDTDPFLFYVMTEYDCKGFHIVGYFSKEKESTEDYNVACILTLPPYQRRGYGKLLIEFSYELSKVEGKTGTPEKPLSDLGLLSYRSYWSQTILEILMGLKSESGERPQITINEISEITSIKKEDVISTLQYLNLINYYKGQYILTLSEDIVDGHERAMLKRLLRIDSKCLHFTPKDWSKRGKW
# Histone acetyltransferase KAT2A, sequence (Q92830 whole entry): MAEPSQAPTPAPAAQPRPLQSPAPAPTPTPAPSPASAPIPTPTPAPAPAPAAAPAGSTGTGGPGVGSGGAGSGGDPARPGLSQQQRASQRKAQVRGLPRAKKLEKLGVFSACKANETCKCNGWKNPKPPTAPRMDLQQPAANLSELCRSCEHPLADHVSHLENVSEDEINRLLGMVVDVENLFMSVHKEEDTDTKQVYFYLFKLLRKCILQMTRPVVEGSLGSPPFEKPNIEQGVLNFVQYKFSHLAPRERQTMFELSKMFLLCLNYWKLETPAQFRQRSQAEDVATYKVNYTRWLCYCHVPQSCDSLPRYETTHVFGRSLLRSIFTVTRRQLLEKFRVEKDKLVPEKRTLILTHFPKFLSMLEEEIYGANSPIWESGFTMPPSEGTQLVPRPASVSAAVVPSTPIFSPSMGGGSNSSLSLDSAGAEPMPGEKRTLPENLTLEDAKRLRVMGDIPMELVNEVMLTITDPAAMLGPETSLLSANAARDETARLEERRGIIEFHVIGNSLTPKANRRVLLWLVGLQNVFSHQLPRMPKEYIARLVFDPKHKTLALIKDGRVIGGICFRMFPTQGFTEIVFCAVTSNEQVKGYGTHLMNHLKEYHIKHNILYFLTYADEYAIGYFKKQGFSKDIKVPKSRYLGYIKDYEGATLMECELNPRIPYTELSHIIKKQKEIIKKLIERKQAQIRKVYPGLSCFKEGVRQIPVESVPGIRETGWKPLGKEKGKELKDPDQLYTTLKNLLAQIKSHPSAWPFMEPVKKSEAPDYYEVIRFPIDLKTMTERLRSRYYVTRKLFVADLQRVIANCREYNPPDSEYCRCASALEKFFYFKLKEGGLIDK
# Histone acetyltransferase KAT7, sequence (O95251 whole entry): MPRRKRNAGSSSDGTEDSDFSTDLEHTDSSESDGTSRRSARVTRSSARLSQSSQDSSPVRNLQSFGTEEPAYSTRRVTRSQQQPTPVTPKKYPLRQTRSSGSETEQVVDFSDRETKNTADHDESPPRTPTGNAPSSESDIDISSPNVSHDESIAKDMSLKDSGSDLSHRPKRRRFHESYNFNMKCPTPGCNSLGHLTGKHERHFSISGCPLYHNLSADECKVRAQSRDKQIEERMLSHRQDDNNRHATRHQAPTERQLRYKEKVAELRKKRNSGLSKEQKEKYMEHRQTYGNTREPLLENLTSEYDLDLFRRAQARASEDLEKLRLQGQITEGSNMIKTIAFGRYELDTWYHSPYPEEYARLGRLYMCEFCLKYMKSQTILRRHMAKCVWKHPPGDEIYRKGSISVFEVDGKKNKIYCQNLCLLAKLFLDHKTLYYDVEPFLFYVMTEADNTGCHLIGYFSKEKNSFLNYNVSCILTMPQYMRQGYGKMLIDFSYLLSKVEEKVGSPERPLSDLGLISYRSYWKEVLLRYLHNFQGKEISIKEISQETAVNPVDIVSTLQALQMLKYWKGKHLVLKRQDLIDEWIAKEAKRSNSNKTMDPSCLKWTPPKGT
compound,measurement,setting,value
COc1ccc(C2(C(=O)N3C[C@H](F)C[C@@H]3C(=O)Nc3ccc4[nH]ncc4n3)CCC(F)(F)CC2)cc1,Activity,[1],Non-Toxic
same,IC50,[2],0.054 µM
same,logD at 0.5 h,[3],3
same,intrinsic clearance (CLint),[4],50 µL/min/mg
same,intrinsic clearance,[5],50 µL/min/mg
same,AUC,[6],130 µM·h
same,fAUC,[7],5.33 µM·h
same,Cmax,[8],34 µM
same,half-life,[9],2.4 h
same,F,[10],21%
same,Vd,[11],0.14 L/kg
same,CL free,[12],39 mL/min/kg
same,IC50,CREB-binding protein,0.001 µM
same,IC50,[13],> 50 µM
same,IC50,[14],> 50 µM
same,IC50,[15],> 50 µM
same,IC50,[16],> 50 µM
same,IC50,[17],> 50 µM
same,GI50,VCaP [18],0.0006 µM
same,GI50,CWR22R,0.0065 µM
same,GI50,LNCaP [19],0.0034 µM
same,GI50,PC-3,0.287 µM
same,Activity,[20],Non-Toxic
same,inhibition,VCaP [21],Dose-Dependent Effect
same,inhibition,VCaP [22],Dose-Dependent Effect
same,Activity,VCaP [23],Dose-Dependent Effect
same,inhibition,LNCaP [24],Dose-Dependent Effect
same,inhibition,LNCaP [25],Dose-Dependent Effect
same,Activity,LNCaP [26],Dose-Dependent Effect
same,inhibition in vivo at 0.3 mg/kg,VCaP [27],39%
same,inhibition in vivo at 1 mg/kg,VCaP [28],74%
same,inhibition in vivo at 3 mg/kg,VCaP [29],109%
same,Activity,VCaP [30],Dose-Dependent Effect
